Results reported in patent publication US8618162B2 (priority 2007, dated 2013).
Read-outs that look alike come from different tables or passages of the source.

How the values were obtained:
hAChE = biological target: T1, hAChE (Homo sapiens, UniProt P22303); experiment: Ellman AChE inhibition assay, recombinant hAChE; assay type: biochemical
T1 construct: purchased Sigma C1682

Ag hmg AChE = biological target: T2, Ag hmg AChE (Anopheles gambiae, UniProt Q869C3); experiment: Ellman AChE inhibition assay, Anopheles gambiae homogenate (Ag hmg); assay type: biochemical; conditions: for IC50: pH 7.8, 10 min preincubation; for Human/Ag IC50 ratio (selectivity for AgAChE over hAChE): range over the two AgAChE sources (Ag hmg, Ag ace-1S); for IC50 ratio (hAChE/Ag hmg): selectivity, values in parenthesis
T2 construct: To prepare the Ag homogenate (Ag hmg) 10 Anopheles gambiae mosquitoes were combined; from tissue; host or cells: whole Anopheles gambiae mosquitoes, crude homogenate supernatant

Anopheles gambiae = experiment: Live mosquito contact toxicity, WHO filter paper assay; assay type: in vivo; conditions: for Live Mosquito Contact Toxicity MC for 100% lethality at 24 hr: 1 hr exposure to treated filter paper
Ag ace-1S [1] = biological target: T3, Ag ace-1S (Anopheles gambiae, UniProt Q869C3); experiment: biochemical
T3 construct: encoding the entire wild type AgAChE protein (ace1, 737 amino acids); made in house; host or cells: Drosophila S2 cells (stably transfected, pMT/V5-His vector), clarified cell lysate

Ag ace-1S [2] = experiment: biochemical; design: species or system Anopheles gambiae; conditions: selectivity, values in parenthesis
[3] = Ag WT hmg IC50, WT Anopheles gambiae homogenate
[4] = pH 7.8, 10 min preincubation, read-out: hAChE recomb. IC50
[5] = WT Anopheles gambiae homogenate, read-out: Ag WT hmg IC50
[6] = recombinant Anopheles gambiae AChE, WT (susceptible) strain, read-out: Ag ace-1S IC50

T3 sequence (Q869C3 39-737): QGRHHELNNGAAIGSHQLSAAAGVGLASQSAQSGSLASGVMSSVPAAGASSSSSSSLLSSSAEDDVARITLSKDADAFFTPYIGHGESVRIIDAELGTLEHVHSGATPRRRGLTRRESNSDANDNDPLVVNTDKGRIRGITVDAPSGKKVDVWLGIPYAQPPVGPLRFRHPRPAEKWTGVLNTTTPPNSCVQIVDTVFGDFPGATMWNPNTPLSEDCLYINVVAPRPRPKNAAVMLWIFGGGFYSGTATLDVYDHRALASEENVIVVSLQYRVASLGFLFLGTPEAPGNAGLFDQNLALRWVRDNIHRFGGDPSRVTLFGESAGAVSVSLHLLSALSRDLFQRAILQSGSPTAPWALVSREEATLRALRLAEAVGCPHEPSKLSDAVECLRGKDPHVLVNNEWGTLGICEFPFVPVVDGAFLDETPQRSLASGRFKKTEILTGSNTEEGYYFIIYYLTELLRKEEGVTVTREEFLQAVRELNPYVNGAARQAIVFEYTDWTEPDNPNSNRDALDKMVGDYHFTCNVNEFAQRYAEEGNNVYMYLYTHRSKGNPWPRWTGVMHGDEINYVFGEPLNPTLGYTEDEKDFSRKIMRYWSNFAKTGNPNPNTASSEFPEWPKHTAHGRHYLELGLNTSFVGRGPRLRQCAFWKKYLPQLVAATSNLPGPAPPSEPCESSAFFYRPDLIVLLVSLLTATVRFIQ
T2 sequence (Q869C3 39-737): as above
T1 sequence (P22303 32-614): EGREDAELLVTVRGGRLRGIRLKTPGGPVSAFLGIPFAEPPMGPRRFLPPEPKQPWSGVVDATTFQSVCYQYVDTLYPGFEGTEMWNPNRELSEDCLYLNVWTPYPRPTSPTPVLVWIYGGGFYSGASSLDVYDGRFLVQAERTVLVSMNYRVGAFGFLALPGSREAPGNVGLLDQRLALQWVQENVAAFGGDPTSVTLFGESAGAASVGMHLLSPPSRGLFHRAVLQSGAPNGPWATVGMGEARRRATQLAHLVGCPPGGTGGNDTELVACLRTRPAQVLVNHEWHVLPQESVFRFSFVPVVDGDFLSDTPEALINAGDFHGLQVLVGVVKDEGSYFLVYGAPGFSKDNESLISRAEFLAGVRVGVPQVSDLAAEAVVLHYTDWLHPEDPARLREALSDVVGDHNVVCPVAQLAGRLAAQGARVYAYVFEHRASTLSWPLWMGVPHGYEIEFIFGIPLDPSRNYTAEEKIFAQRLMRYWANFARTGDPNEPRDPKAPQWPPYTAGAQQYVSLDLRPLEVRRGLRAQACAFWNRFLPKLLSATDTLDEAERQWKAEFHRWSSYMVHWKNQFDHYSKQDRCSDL

| Molecule | IC50 (hAChE) [nM] | IC50 (Ag hmg AChE; [3]) [nM] | Live Mosquito Contact Toxicity MC for 100% lethality at 24 hr (Anopheles gambiae) [ug/cm^2] | IC50 (Ag ace-1S [1]) [nM] | lethality at 24 h (Anopheles gambiae; at 11 ug/cm^2, 1 hr exposure) | also measured |
| --- | --- | --- | --- | --- | --- | --- |
| CNC(=O)Oc1ccccc1SCC(C)C [Compound 6b, 2-(isobutylthio)phenyl-N-methylcarbamate] | 8110 | 109 | 11 |  |  | Human/Ag IC50 ratio (selectivity for AgAChE over hAChE) (Ag hmg AChE): 74 fold |
| C=C(C)CSc1ccccc1OC(=O)NC [Compound 8b, 2-(2-methylallylthio)phenyl-N-methylcarbamate] | 9550 | 124 | 2.8 | 165 |  |  |
| CCCCN(CCCC)SN(C)C(=O)Oc1cccc2c1OC(C)(C)C2 [Carbosulfan, reference compound] |  |  |  | 10800 |  | IC50 (hAChE; [4]): 5920 nM; IC50 (Ag hmg AChE; [5]): 4100 nM |
| C=CCSc1ccccc1OC(=O)NC [Compound 16b, 2-(allylthio)phenyl-N-methylcarbamate] | 1580 | 156 | 5.6 | 36 |  |  |
| CCC(CC)COc1ccccc1OC(=O)NC [Compound 2b, 2-(2-ethylbutoxy)phenyl-N-methylcarbamate] | 98800 | 69 |  | 10 | 27% | Human/Ag IC50 ratio (selectivity for AgAChE over hAChE) (Ag hmg AChE): 1,400-9.900 fold; lethality at 24 h, +PBO (Anopheles gambiae; at 11 ug/cm^2, +PBO): 53% |
| C=C(Br)COc1ccccc1OC(=O)NC [Compound 21b, 2-(2-bromoallyloxy)phenyl-N-methylcarbamate] | 31900 | 1070 | 11 | 741 |  |  |
| CCCCCCNC(=O)Oc1cccc(C(C)(C)C)c1 [Compound 1c] | 696 | > 100000 |  |  | 13% lethal at 11 |  |
| C=C(C)COc1ccccc1OC(=O)NC [Compound 20b, 2-(2-methylallyloxy)phenyl-N-methylcarbamate] | 68700 | 1510 |  |  | 93% lethality at 11 |  |
| CNC(=O)ON=C(C)SC [Methomyl, reference compound] |  |  | 2.7 | 1760 |  | IC50 (hAChE; [4]): 626 nM; IC50 (Ag hmg AChE; [5]): 716 nM; IC50 ratio (hAChE/Ag hmg) (Ag hmg AChE): (0.87x); IC50 ratio (hAChE/Ag ace-1S) (Ag ace-1S [2]): (0.36x) |
| CNC(=O)Oc1ccccc1SCC1CCCCC1 [Compound 9b, 2-(cyclohexylmethylthio)phenyl-N-methylcarbamate] | 10600 | 17500 |  |  |  |  |
| C/C=C/CSc1ccccc1OC(=O)NC [Compound 17b, (E)-2-(but-2-enylthio)phenyl-N-methylcarbamate] | 494 | 57 |  | 68 |  | lethality at 24 h (Anopheles gambiae; at 5.6 ug/cm^2, 1 hr exposure): 93% lethal at 5.6 |
| C=C(C)CSc1ccccc1OC(=O)N(C)C [Compound 8e, 2-(3-thio-2-methylpropenyl)phenyl-N,N-dimethylcarbamate] | 10300 | 5820 |  |  | None at 11 |  |
| CNC(=O)Oc1ccccc1SCC=C(C)C [Compound 18b, 2-(3-methylbut-2-enylthio)phenyl-N-methylcarbamate] | 2700 | 1180 | 56 | 411 |  |  |
| CCNC(=O)Oc1cccc(C(C)(C)C)c1 [Compound 1h] | 2410 | 4000 | 11 |  |  |  |
| CCC(C)CSc1ccccc1OC(=O)NC (stereo not shown) [Compound 4b, 2-(2-methylbutylthio)phenyl-N-methylcarbamate] | 3540 | 30 |  | 27 | 70% at 11 |  |
| C=C(Cl)CSc1ccccc1OC(=O)NC [Compound 14b, 2-(2-chloroallylthio)phenyl-N-methylcarbamate] | 3100 | 114 | 11 | 264 |  |  |
| CNC(=O)Oc1ccccc1OCC1CCCCC1 [Compound 10b, 2-(cyclohexylmethoxy)phenyl-N-methylcarbamate] | > 100000 | > 100000 |  |  |  |  |
| CNC(=O)Oc1ccccc1OCC(C)C [Compound 13b, 2-isobutoxyphenyl-N-methylcarbamate] | 66900 | 2060 |  | 650 |  | lethality at 24 h (Anopheles gambiae; at 2.8 ug/cm^2, 1 hr exposure): 100% at 2.8 |
| 2-isopropylphenyl-N-methylcarbamate [Compound 22b] |  |  | 56 |  |  | IC50 (hAChE; [4]): 4540 nM; IC50 (Ag hmg AChE; [5]): 507 nM; IC50 ratio (hAChE/Ag hmg) (Ag hmg AChE): (8.8x); IC50 ratio (hAChE/Ag ace-1S) (Ag ace-1S [2]): (11x); IC50 (Ag ace-1S [1]; [6]): 426 nM |
| CN(C)C(=O)Oc1cccc(C(C)(C)C)c1 [Compound 1g] | 4040 | 5940 |  |  | 20% lethal at 11 |  |

| Molecule | IC50 (hAChE) [nM] | IC50 (Ag hmg AChE; [3]) [nM] | Live Mosquito Contact Toxicity MC for 100% lethality at 24 hr (Anopheles gambiae) [ug/cm^2] | IC50 (Ag ace-1S [1]) [nM] | lethality at 24 h (Anopheles gambiae; at 11 ug/cm^2, 1 hr exposure) | also measured |
| --- | --- | --- | --- | --- | --- | --- |
| CNC(=O)Oc1ccccc1C(C)(C)C [Compound 23b, 2-tert-butylphenyl methylcarbamate] | > 100000 | 79000 | 56 | 51700 |  | IC50 ratio (hAChE/Ag hmg) (Ag hmg AChE): (>1.3x); IC50 ratio (hAChE/Ag ace-1S) (Ag ace-1S [2]): (1.9x) |
| N-methyl-3-fluoro-5-trifluoromethylphenylcarbamate [Compound 12a] |  |  |  |  | None at 11 | IC50 (hAChE; [4]): > 100000 nM; IC50 (Ag hmg AChE; [5]): > 100000 nM; IC50 (Ag ace-1S [1]; [6]): 78500 nM |
| CCC(CC)CSc1ccccc1OC(=O)NC [Compound 1b, 2-(2-ethylbutylthio)phenyl-N-methylcarbamate] | 3630 | 3 |  | 2.9 | 27% at 11 | Human/Ag IC50 ratio (selectivity for AgAChE over hAChE) (Ag hmg AChE): 1200 fold |
| C=C(Br)CSc1ccccc1OC(=O)NC [Compound 15b, 2-(2-bromoallylthio)phenyl-N-methylcarbamate] | 1660 | 248 |  | 173 |  | lethality at 24 h (Anopheles gambiae; at 56 ug/cm^2, 1 hr exposure): 93% lethal at 56 |
| CNC(=O)Oc1cccc2c1OC(C)(C)O2 [Bendiocarb, reference compound] |  |  | 0.55 | 142 |  | IC50 (hAChE; [4]): 270 nM; IC50 (Ag hmg AChE; [5]): 65 nM; IC50 ratio (hAChE/Ag hmg) (Ag hmg AChE): (4.1x); IC50 ratio (hAChE/Ag ace-1S) (Ag ace-1S [2]): (1.9x) |
| CNC(=O)Oc1ccccc1SCc1ccccc1 [Compound 19b, 2-(benzylthio)phenyl-N-methylcarbamate] | 15700 | 6900 |  | 3840 |  |  |
| CNC(=O)Oc1cccc(-c2ccccc2)c1 [Compound 6a] | 38900 | 18400 | 56 | 12100 |  | IC50 ratio (hAChE/Ag hmg) (Ag hmg AChE): (2.1x); IC50 ratio (hAChE/Ag ace-1S) (Ag ace-1S [2]): (3.2x) |
| CNC(=O)Oc1ccccc1OCC1CCCC1 [Compound 12b, 2-(cyclopentylmethoxy)phenyl-N-methylcarbamate] | > 100000 | 24600 |  |  |  |  |
| CNC(=O)Oc1ccccc1SC(C)C [Compound 5b, 2-(isopropylthio)phenyl-N-methylcarbamate] | 943 | 33 | 2.8 |  |  |  |
| CCC(CC)C[S+]([O-])c1ccccc1OC(=O)NC (stereo not shown) [Compound 3b, 2-(2-ethylbutylsulfinyl)phenyl-N-methylcarbamate] | 55400 | 51800 |  |  | 0% at 11 |  |
| C=C(C)CSc1ccccc1OC(=O)NCCCCCC [Compound 8d, 2-(3-thio-2-methylpropenyl)phenyl-N-hexylcarbamate] | 6860 | > 100000 |  |  | None at 11 |  |
| CNC(=O)Oc1cccc(-c2cn(Cc3ccccc3)nn2)c1 [Compound 13a, N-methyl 3-(1-benzyl-1H-1,2,3-triazol-4-yl)phenyl carbamate] | > 100000 | 336000 |  |  | None at 11 |  |
| C#CCNC(=O)Oc1cccc(C(C)(C)C)c1 [Compound 1e, N-propargyl 3-t-butylphenyl carbamate] | 205 | 339 | 56 |  |  |  |
| CC(C)NC(=O)Oc1cccc(C(C)(C)C)c1 [Compound 1d, N-isopropyl-3-tert-butylphenylcarbamate] | 181000 | 538000 |  |  |  |  |
| CNC(=O)Oc1ccccc1SCC1CCCC1 [Compound 11b, 2-(cyclopentylmethylthio)phenyl-N-methylcarbamate] | 6880 | 1070 |  | 391 |  |  |
| C=C(C)CSc1ccccc1OC(=O)NCC [Compound 8c, 2-(3-thio-2-methylpropenyl)phenyl-N-ethylcarbamate] | 54200 | 13000 |  |  | None at 11 |  |
| CNC(=O)Oc1cccc2c1OC(C)(C)C2 [Carbofuran, reference compound] |  |  |  | 49 |  | IC50 (hAChE; [4]): 61 nM; IC50 (Ag hmg AChE; [5]): 22 nM |
| CC(C)(C)c1cccc(OC(=O)NCc2cn(Cc3ccccc3)nn2)c1 [Compound 1f, N-(1-benzyl-1H-1,2,3-triazol-4-yl)methyl 3-t-butylphenyl carbamate] | > 10000 | > 10000 | 56 |  |  |  |
| CNC(=O)Oc1ccccc1SCC(C)(C)C [Compound 7b, 2-(neopentylthio)phenyl-N-methylcarbamate] | 13900 | 732 |  | 287 | 33% at 11 |  |
